In series [1] the test system is B16F10 murine melanoma cancer cell. Nature of the series: cytotoxicity against cancer cells by poly6-treated DC2.4 cells, FACS. It counts as cell-based. The method, then: (§1) FIG. 7 illustrates the results of confirming that the cytotoxicity of various cancer cell lines (MC38, B16F10, and EO771) was reduced when iNOS formation was inhibited by L-NAME (5 mM) treatment while stimulating DC2.4 cells with poly6 for 24 hours (statistical significance was tested by Student's t-test. *, P<0.05; **, P<0.01; and ***, P<0.001).

The subject of series [2] is MC38 murine colon cancer cell. The series is described as above. It counts as cell-based. The method, then: as §1
The subject of the next series is EO771. Described as above. The class given is cell-based, murine. On the procedure: as §1
For series [3], the system named is PanO2 murine pancreatic cancer cell. As to conditions: concentration-dependent.
Series [4] has as its system MDA231 human breast cancer cell. The settings on record: concentration-dependent.
[5] abbreviates: L-NAME 5 mM while stimulating DC2.4 with poly6 for 24 hours.
The mark [6] stands for this setting: DC2.4 treated with 10 μM of poly6 vs LPS (1 μg/ml).

Ends that are not written are not given here.

Turning to `COC(=O)[C@@H](N)CCCNC(=N)N[N+](=O)[O-]` [L-NAME, reference compound], the “cytotoxicity when iNOS formation was inhibited” value (in series [1] (setting [5]); in series [2] (setting [5]); with EO771 (setting [5])) was “reduced” each time.
Regarding GRLVFQ [poly6, GRLVFQ], the “cytotoxicity by poly6-stimulated DC2.4 cells” value (in series [3]; in series [1] (concentration-dependent); in series [2] (concentration-dependent); in series [4]; in the series on EO771 (concentration-dependent)) was “cytotoxicity was induced” in each case. Also, the “cytotoxicity against cancer cells compared to LPS” value in series [1] (setting [6]) and in series [2] (setting [6]) was “statistically significantly increased” in each case.

The values are drawn from US20230293676A1, “Pharmaceutical Composition Comprising Hepatitis B Virus-Derived Polypeptide for Prevention or Treatment of Cancer” (priority 2020, published 2023).
